In ChEMBL document CHEMBL5727017, “N-arylmethyl sulfonamide negative modulators of NR2A” (2018):
pIC50: −log10 of the molar value.

Assay: Biological Assay: Cell Culture and plating: HEK293 cells expressing NR1/NR2A (Chantest, Cleveland, Ohio) were grown to 70-80% confluency as an adherent monolayer in standard tissue culture flasks at 37° C., 5% CO2 per supplier's instructions. NR2A expression was induced by incubation with 0.3-0.4 μg/ml tetracycline in the presence of 4 mM ARL-15896 for 18-24 hours under the same growth conditions, then transferred to 30° C. for another 3-5 hours.After induction, cell culture medium was removed and cells were rinsed once with Ca2+ and Mg2+-free Dulbecco's phosphate buffered saline. Cells were then removed from the flask using TrypLE Express (Life Technologies) according to the manufacturer's instructions and collected to 50 ml centrifuge tubes. Following two washes in Ca2+/Mg2+-free HBSS with 20 mM HEPES (HHnoCa), cells were counted and viability assessed using trypan blue. To load cells with Ca2+-sensitive dye, they were resuspended in fluo-8 plus Component B (AAT Bioquest Products) diluted in HHnoCa and incubated 15 minutes at 37° C., followed by 30 minutes at room temp (in dark). Cells were then washed and resuspended in HHnoCa to remove extracellular dye and plated in 384-well plates (Falcon, uncoated) at 20,000-30,000 cells/well in a final volume of 25 μL/well.

Structure (SMILES): Cc1ncc(CNC(=O)c2ccc(CNS(=O)(=O)c3c(C)noc3C)cn2)s1
- pIC50: 5.00
